The values below come from article PMC11475408, “All‐Inorganic Polyoxometalates Act as Superchaotropic Membrane Carriers” (Advanced Materials (Deerfield Beach, Fla.), 2023).

One data set relates to heptalysine. The data set is described as follows: ITC, POM into heptalysine. To be noted: 10 mM Tris, pH 7.4, value is Ka divided by 10^7. The class given is binding. Here is the method: All experiments were performed with a VP‐ITC MicroCalorimeter from MicroCal, Int,. at atmospheric pressure and 298.15 K. Solutions were degassed and thermostatic prior to the titration experiments in a ThermoVac accessory. A constant volume of POM ([PVW11]^4‒ or [SiMoW11]^4‒) (10 µL per injection) was injected into the oligopeptide solution (heptaArg, protamine, polyArg or heptaLys) in 10 mM Tris, pH 7.4 to determine the apparent binding affinity of [PVW11]^4‒ and [SiMoW11]^4‒ with the oligopeptides. Dilution heats were determined by titration of the POM into buffer and subtracted from the reaction heat. The neat reaction heat was fitted with Origin 7.0 software by using the “one‐set‐of‐sites” model to obtain the complex stability constant (K a) and molar reaction enthalpy (∆H°). The free energy (∆G°) and entropy changes (∆S°) were obtained according to the relation: ∆G° = −RTlnK a = ∆H°−T∆S°.
Figure S11. Microcalorimetric titrations in 10 mM Tris, pH 7.4: Raw ITC data (top) for the sequential injections of POM solution into a heptalysine solution, and apparent reaction heats (bottom) obtained from the integration of the calorimetric traces. POM/heptalysine concentrations in µM: a, 200/8 and b, 150/10. Error data is 5% for the n values and ± 0.5 kcal mol‒1 for ΔH and TΔS (duplicate […]
Table S6. […]
For orientation: Isothermal titration calorimetry measures the heat released or taken up as one component is titrated into another.

Data set [1] deals with methicillin-resistant Staphylococcus aureus (SR3605, ATCC43300). As to conditions: in combination with β-Lactamase; Mueller-Hinton broth, pH 7.4, 34 °C; ref [8]; cited from earlier work. An excerpt: page 4: 2. Literature survey Table S1. Survey of experimentally proven membrane penetration of POMs according to a search in Scopus (“polyoxometalate” and “membrane penetration”) up to the submission date of the manuscript.

The test system of the next data set is cationic oligopeptides. The data set is described as follows: ITC, POM with the peptides (general statement). The format is binding. Here is the method:
To affect membrane transport, any carrier needs to display an affinity toward the cargo as well as toward the lipid bilayer. Accordingly, the interaction between [PVW11]^4‒ and [SiMoW11]^4‒ and the peptides was analyzed by isothermal titration calorimetry (ITC, Figure 2c,d; and Figures S10 and S11, Supporting Information). […] (enthalpically driven, interaction with the peptide backbones, Table S6, Supporting Information) and Coulombic interactions (interaction with arginine and lysine side chains). The strong but reversible intermolecular interactions between the low‐charged POMs and the cationic oligopeptides present an interesting finding, which was measured for both, oligo‐ and polypeptides. Previous ITC studies have focused only on the binding of proteins with highly charged and therefore weakly chaotropic POMs (n < −6, Table S3, Supporting Information), where electrostatic interactions were implied as main driving force.^[ [65], [66], [67], [68], [69], [70], [71], [72], [73] ^]
All experiments were performed with a VP‐ITC MicroCalorimeter from MicroCal, Int,. at atmospheric pressure and 298.15 K. Solutions were degassed and thermostatic prior to the titration experiments in a ThermoVac accessory. […] Dilution heats were determined by titration of the POM into buffer and subtracted from the reaction heat. […]

Data set [2] concerns CHO‐K1 cells. The data set is described as follows: Cellular viability, resazurin assay. To be noted: CHO-K1, up to 10 µM carrier, 24 h, n = 3. The class given is cell-based, Chinese hamster. As to the method:
For cell viability assay in thepresence of activators, CHO‐K1 cells were incubated in Ham's F‐12 medium containing 10% fetal bovine serum and 1.0% penicillin streptomycin at 37 °C in a 5% CO2 for 24 h. CHO‐K1 cells were dispersed in a 96‐well flat bottom tissue culture treated plates (Eppendorf) at density of 5 × 10^3 cells per well (per 100 µL) and incubated in Ham's F‐12 containing 10% v/v fetal bovine serum at 37 °C in a 5% CO2 incubator for 12 h to allow cell adhesion. Then, cells were incubated with POM, B12Br12 ^2−, or PyBu (10, 50, and 100 µM) for another 24 h. After this incubation time, 20 µL resazurin solution (0.15 mg mL^−1) was added to cells and incubated for another 3 h. Finally, the plates were read at λ em = 590 nm (λ ex = 560 nm) using a JASCO fluorometer FP‐8500. The cell viability was evaluated by the following equation (4) Cellviability=FIsample−FIblank/FIcontrol−FIblank×100% where, FI sample is the fluorescence intensity of cells incubated with different compounds, FI blank is the fluorescence intensity of medium, and FI control is the fluorescence intensity of cells in absence of any compound.
6. Transport in cellular membranes
Figure S13. Viability of CHO-K1cells (resazurin assay) incubated with different carrier concentrations (0, 10, 50, and 100 µM) for 24 hours. Error bars refer to standard deviation (n = 3).
Figure S14. […]
(In general: Alamar Blue is a resazurin reagent that responds to reducing activity.)

Data set [3] relates to CHO‐K1 cells. The data set is described as follows: FITC-Arg8 uptake in live cells, confocal imaging. The format is cell-based, Chinese hamster. To be noted: carrier 5 µM, 5 min, then FITC-Arg8 5 µM, 30 min, 37 °C, four biological replicates. As to the method:
CHO‐K1 cells were plated into µ‐Slide 8‐well plates (ibidi) at a density of ≈1 × 10^5 cells per well (per 1 mL) and incubated for 24 h in Ham's F‐12 medium containing 10% v/v fetal bovine serum and 1.0% penicillin streptomycin at 37 °C in a 5% CO2 atmosphere. The cells were washed twice with Hank's buffer, incubated for 5 min at 37 °C in Ham's F‐12 medium without phenol red with carrier (5 µM), and subsequently in Ham's F‐12 medium without phenol red with 5 µM FITC‐Arg8 for 30 min at 37 °C. Cells in the absence of carrier were used as control. The cells were washed twice with Hank's buffer containing 100 µg mL^−1 heparin and then washed twice with Ham's F‐12 medium without phenol red. The nuclear staining was performed by incubating the cells with 10 µg mL^−1 Hoechst 33 342 (bis‐benzimide H33342 trihydrochloride) for 10 min at 37 °C. Cells were directly imaged as stated above.

For data set [4] the following is noted: ref [11]; cited from earlier work. An excerpt: Table 1 Stability of POMs in acidic and neutral pH and membrane transport parameters of different cargo molecules at pH 7.4 | column: Hydrolysis/stability / pH 5.5 ^e); Hydrolysis/stability / pH 7.5 ^f)

What is called MIC is the lowest concentration found to suppress growth.

For “K4[α‐P^VV^VW^VI 11O40]·4H2O [[PVW11]^4‒]”, in the data set with heptalysine, the “Ka/ 107, heptalysine” value was determined as 2.8 M‒1. Also, the minimal inhibitory concentration (MIC) in data set [1] is 800 µg/mL. Moreover, the “Supramolecular interaction with the peptides (order of magnitude)” value in the data set with cationic oligopeptides is ~10^7 M ^−1. Further, the Cell viability result in the data set with CHO‐K1 cells [2] is on record as “about 80%”.

With “K4[α‐Si^IVMo^VIW^VI 11O40]·24H2O [[SiMoW11]^4‒]”, the “Ka/ 107, heptalysine” value in the data set with heptalysine is 4.1 M‒1. For the same substance, the “Supramolecular interaction with the peptides (order of magnitude)” value with cationic oligopeptides was ~10^7 M ^−1. The Cell viability result in the data set with CHO‐K1 cells [2] was “about 80%”.

With Na3[α‐P^VW^VI 12O40]·nH2O [[PW12]^3‒], the “FITC-Arg8 uptake promoted by carrier” value with CHO‐K1 cells [3] is “some apparent cellular uptake, but the cell morphology was highly compromised”; in the data set with CHO‐K1 cells [3] (listed as [PW12]3‒) it was “highly compromised”. Besides, the “Hydrolysis/stability pH 7.5” value in data set [4] is “to [P^VW^VI 9O34]^9‒ ^j)”.
